Laboratory results published in patent publication US5928910A, “Antifungal substances BE-49385 and process for their production” (Banyu Pharmaceutical Co., Ltd., priority 1995, dated 1999).
Converted amounts (≈) assume the structure as drawn.

Assays:
Solubility = format: physicochemical
[1] = tested on: Schizosaccharomyces pombe IAM4863; test: MIC by agar dilution method, Schizosaccharomyces pombe IAM4863; format: cell-based; details: 72 h, 28° C., 3 days, read-out: MIC (minimum inhibitory concentration)
Procedure: (§1) The minimum inhibitory concentrations of antifungal substances BE-49385 against various fungi were measured. The measurement of MIC was carried out by an agar dilution method using a culture medium prepared by mixing 900 ml of an agar solution containing 2.5 g of sterilized dipotassium hydrogenphosphate and 15 g of agar, with a solution obtained by dissolving 6.7 g of a yeast nitrogen base (manufactured by Difico Co.) and 10 g of glucose in 100 ml of purified water, followed by sterilization by means of sterilizing filter. BE-49385 was dissolved in dimethylsulfoxide to a concentration of 10 mg/ml and further diluted with dimethylsulfoxide to obtain a twice diluted series, and the dimethylsulfoxide concentration in the agar plate was adjusted to be 1%. On the prepared agar plate, 5 μl of the test strain solution adjusted to a concentration of 10^6 cells per 1 ml, was dropped, followed by culturing at 28° C. for 3 days, whereupon the growth was evaluated.
(§2) The minimum inhibitory concentrations (MIC, unit: μ g/ml) of antifungal substance BE-49385A against various fungi, are shown in Table 1, and MICs of BE-49385 substances against Schizosaccharomyces pombe IAM4863 are shown in Table

[2] = tested on: Saccharomyces cerevisiae IFO 1267; test: MIC by agar dilution method, Saccharomyces cerevisiae IFO 1267; format: cell-based; details: IFO1267, 72 h, 28° C., 3 days, read-out: MIC (minimum inhibitory concentration)
Procedure: as §1, §2

[3] = tested on: Candida albicans IFO 1385; test: MIC by agar dilution method, Candida albicans IFO 1385; format: cell-based; details: IFO1385, 72 h, 28° C., 3 days, read-out: MIC (minimum inhibitory concentration)
Procedure: as §1, §2

[4] = tested on: Penicillium chrysogenum IFO 6223; test: MIC by agar dilution method, Penicillium chrysogenum IFO 6223; format: cell-based; details: IFO6223, 72 h, 28° C., 3 days, read-out: MIC (minimum inhibitory concentration)
Procedure: as §1, §2

[5] = tested on: Candida albicans IFO 1270; test: MIC by agar dilution method, Candida albicans IFO 1270; format: cell-based; details: IFO1270, 72 h, 28° C., 3 days, read-out: MIC (minimum inhibitory concentration)
Procedure: as §1, §2

[6] = tested on: Aspergillus niger IFO 31012; test: MIC by agar dilution method, Aspergillus niger IFO 31012; format: cell-based; details: IFO31012, 72 h, 28° C., 3 days, read-out: MIC (minimum inhibitory concentration)
Procedure: as §1, §2

[7] = tested on: Kluyveromyces lactis IFO 1267; test: MIC by agar dilution method, Kluyveromyces lactis IFO 1267; format: cell-based; details: IFO1267, 72 h, 28° C., 3 days, read-out: MIC (minimum inhibitory concentration)
Procedure: as §1, §2

| Structure (SMILES) | Solubility in an organic solvent such as methanol or dimethylsulfoxide (Solubility) | Solubility in water (Solubility) | MIC [1] | MIC [2] | MIC [3] | MIC [4] | MIC [5] | MIC [6] | MIC [7] |
| --- | --- | --- | --- | --- | --- | --- | --- | --- | --- |
| C=C1C2CC3C(C(C)C)C(OC(=O)C(O)c4ccccc4)CC3(C)CC2C(C)=CCC2C(C)OC(=O)C(O)C12O (stereo not drawn) [BE-49385D] | Readily soluble | hardly soluble | 0.78 µg/mL (≈ 1.41 µM) |  |  |  |  |  |  |
| C=C1C2CC3C(C(C)C)C(OC(=O)CC(C)(O)CC(C)CC)CC3(C)CC2C(C)=CCC2C(C)OC(=O)C(OC(C)=O)C12O (stereo not drawn) [BE-49385A-Ac] | Readily soluble | hardly soluble |  |  |  |  |  |  |  |
| C=C1C2CC3C(C(C)C)C(OC(=O)CC(C)(O)CC(C)CC)CC3(C)CC2C(C)=CCC2C(C)OC(=O)C(O)C12O (stereo not drawn) [BE-49385A] | Readily soluble | hardly soluble | < 0.1 µg/mL | 3.13 µg/mL (≈ 5.45 µM) | 3.13 µg/mL (≈ 5.45 µM) | 0.39 µg/mL (≈ 0.678 µM) | 0.78 µg/mL (≈ 1.36 µM) | 0.78 µg/mL (≈ 1.36 µM) | 0.78 µg/mL (≈ 1.36 µM) |
| C=C1C2CC3C(C(C)C)C(O)CC3(C)CC2C(C)=CCC2C(C)OC(=O)C(O)C12O (stereo not drawn) [BE-49385F] | Readily soluble | hardly soluble |  |  |  |  |  |  |  |

Next, values leading:

| Solubility in an organic solvent such as methanol or dimethylsulfoxide (Solubility) | Solubility in water (Solubility) | MIC [1] | MIC [2] | MIC [3] | MIC [4] | MIC [5] | MIC [6] | MIC [7] | Structure (SMILES) |
| --- | --- | --- | --- | --- | --- | --- | --- | --- | --- |
| Readily soluble | hardly soluble | 0.2 µg/mL (≈ 0.339 µM) |  |  |  |  |  |  | C=C1C2CC3C(C(C)C)C(OC(=O)C(O)C(C)(O)CC(C)CC)CC3(C)CC2C(C)=CCC2C(C)OC(=O)C(O)C12O (stereo not drawn) [BE-49385E] |
| Readily soluble | hardly soluble | 0.39 µg/mL (≈ 0.698 µM) |  |  |  |  |  |  | C=C1C2CC3C(C(C)C)C(OC(=O)CC(C)CC(C)CC)CC3(C)CC2C(C)=CCC2C(C)OC(=O)C(O)C12O (stereo not drawn) [BE-49385C] |
| Readily soluble | hardly soluble | 0.39 µg/mL (≈ 0.66 µM) |  |  |  |  |  |  | C=C1C2CC3C(C(C)C)C(OC(=O)C(O)C(O)CCC(C)CC)CC3(C)CC2C(C)=CCC2C(C)OC(=O)C(O)C12O (stereo not drawn) [BE-49385G] |
| Readily soluble | hardly soluble |  |  |  |  |  |  |  | C=C1C2CC3C(C(C)C)C(OC(=O)C(O)C(O)C(C)CC(C)CC)CC3(C)CC2C(C)=CCC2C(C)OC(=O)C(O)C12O (stereo not drawn) [BE-49385H] |
| Readily soluble | hardly soluble | 0.39 µg/mL (≈ 0.662 µM) |  |  |  |  |  |  | C=C1C2CC3C(C(C)C)C(OC(=O)C(O)CC(C)CC(C)CC)CC3(C)CC2C(C)=CCC2C(C)OC(=O)C(O)C12O (stereo not drawn) [BE-49385B] |
